Values joined by “and” are separate entries in the source; they are usually repeats but may differ in a detail not shown here. Identical values can stand only once.
Assays:
[1] = system: rd10 mice; assay: rd10 mice, daily i.p. injection, retina histology and biochemistry; format: in vivo, mouse; settings: daily i.p. 40 mg/kg bw, P18 to P25
Experimental: (§1) C57BL/6 J mice wild-type (WT) and homozygous for the Pde6 mutation (rd10 mouse model of retinal degeneration) were obtained from The Jackson Laboratory and experiments were performed at the age indicated in each part of the study. C57BL/6 KFERQ-Dendra mice were generated by back-crossing FVB KFERQ-Dendra mice with wild-type C57BL/6 mice for 8 generations. Both male and female animals were used in this study in equally distribution groups. However, results from both sexes were pooled, because of absence of significant differences in any of the parameters analyzed after statistical analysis with a mixed model of two-way ANOVA sex and treatment as independent variables and the corresponding measure as dependent variable. All animals were housed in a barrier-controlled facility (19–23 °C 30–60% relative humidity; 12 h light/dark cycle) with ad libitum access to standard chow pellets (protein 19 gm%/carbohydrate 67 gm%/fat 4 gm%) and water. For animal administration of CA compounds, a formula containing 30% PEG 400 (Sigma, #8.0745), 65% of 5% glucose solution, 5% Tween 80 (Sigma, #P1754) was used to dissolve them. CA compounds were prepared freshly by adding 5% DMSO and sonicating for 1 h. Treatment of KFERQ-Dendra mice with the CA compounds was done at 4 months of age by i.p. daily injection of 30 mg/kg bw or vehicle for three consecutive days and tissues collected 6 h after the last injection. In the case of rd10 mice, animals were daily injected from P18 to P25 with CA77 (40 mg/kg bw). In the case of intravitreal administration, a single intravitreal injection was applied at P18 with CA77 (40 µM) in DMSO/PBS and the contralateral eye was injected with PBS and DMSO at same concentration. At P26, mice were sacrificed and eyes fixed overnight with 4% PFA (Sigma, #P6148) in PBS at 4 °C for immunofluorescence or retinas dissected and immediately frozen for biochemistry. Distribution of animals in the vehicle or treatment group was done randomly. ICR (CD-1) outbred 3 months old male mice from ENVIGO were used for the pharmacokinetic studies (see pharmacokinetic section for housing and handling details). All animal studies and procedures complied with ethical regulations, were performed in accordance with the European Union guidelines and the ARVO Statement for the Use of Animals in Ophthalmic and Vision Research and were approved by the Institutional Animal Care and Use Committee at the Albert Einstein College of Medicine, the CSIC Bioetica Comite and approved by the Comunidad de Madrid, PROEX232/17.
(§2) 12 μm cryosections and immunofluorescence in retinal sections[10] after orienting retinas with a dorsal mark, so comparisons were performed taking into account the precise retinal area. Primary antibodies used in this study were visual (rod) arrestin, cone arrestin, Opsin R/G, transducin, GFAP, N-CoR1. Sections were visualized by confocal microscopy (TCS SP5; Leica Microsystems).
(§3) For ONL thickness quantification, DAPI images were taken at 40X in a fluorescence microscope Multidimensional system Leica AF6000 LX coupled to DMI600B microscope and Hamamatsu CCD 9100-O2 camera. At least two sections per animal were analyzed, preferably central sections. Eight images per retina equally distributed along the retina were acquired. Three measures were taken per image and ratio ONL/INL quantified with ImageJ tools. Leica LAS-X (3.7.4.23463) was used for image acquisition and ImageJ (v.2.1.0) was used for image processing. For OS length measures, fixed positions common to all pictures were considered and OS length was measured using ImageJ straight line tool.
RNA was extracted from individual retinas or tissue sections (brain, liver). Total RNA from retinas was extracted using TRIzol Reagent (Invitrogen, # 15596-018), and reverse transcription was performed using the High-Capacity cDNA Reverse Transcription Kit (Applied Biosystems, # 4374966) according to the manufacturer’s instructions. […]

[2] = system: rd10 mice; assay: rd10 mice, single intravitreal injection, retina histology; format: in vivo, mouse
Experimental: as §1, §2, §3
Eyes were enucleated, put in a plate with cold PBS and an incision was made under the microscope to let the fixative enter into the eye. […]

[3] = system: CaCo-2 cells; assay: Bidirectional permeability assay with CaCo-2 cells; format: in vitro ADME, human; settings: in words
Experimental: In vitro solubility in the following conditions A) HBSS/HEPES 10 mM/BSA 0.1% pH 6 B) HBSS/HEPES 10 mM/BSA 0.1% pH 7.4 C) TRIS/BSA 0.1% PBS (pH 7.4 and at indicated doses were measured by Nephelometry using the NEPHELOstar Galaxy apparatus (BMG Lab Technologies). In vitro stability in human, mouse and rat liver microsomes and permeability using a bidirectional permeability assay with CaCo-2 cells (pH 6.5/7.4) assays were performed with standard methodology and analyzed by LC-MS/MS. at SIMM-SERVIER joint Biopharmacy Laboratory. ADME properties for CA39 and CA77 were predicted by QikProp (Schrödinger, LLC, Releases 2016-2020) software.

[4] = system: retinal explants of rd10 mice; assay: Ex-vivo retinal cultures of rd10 mice; set-up: species or system mouse; settings: rd10 P21 to P24; 40 μM for 72 h; vs contralateral untreated explant
Experimental: After removal of the eyes, all non-relevant tissue was removed from the neuroretina, which was then placed, photoreceptors upside down, in Millicell support inserts (Millipore, #PICM0RG50) and maintained in DMEM with 1 μM insulin (SIGMA, #I2643) for 72 h at 37 °C in a 5% CO2 atmosphere. Where indicated, retinas were incubated with 40 μM CA77 for the indicated times. The retinas were then washed twice with phosphate-buffered saline (PBS), fixed overnight in 4% paraformaldehyde (w/v) in 0.1 M phosphate buffer (pH 7.4) and processed. Retinas were separated along dorsoventral axis and nasal half was used for whole-mounts and temporal half was used for 12 µm cryosections.
Immunostainings were performed overnight at 4 °C using antibodies against visual (rod) arrestin and cone arrestin after initial permeabilization with 2% Triton X-100 for 1 h at RT and subsequent incubation with blocking solution (10% normal goat serum, 0.25% Triton X-100 in PBS). The retinas were then washed and incubated for 1 h with Alexa 568 or 647 (Invitrogen, #A-11004, #A32728), counterstained with DAPI (1 µg/mL, Sigma, # D9542), mounted in Fluoromount-G (Cultek, #100-01), and visualized by confocal microscopy in an SP5 confocal microscope (TCS SP5; Leica Microsystems). […]

[5] = rd10 mice, 7 days after a single intravitreal injection (40 µM) at P18
[6] = rd10 mice, individual values and Mean CA77

CC(=O)Nc1ccc(C2=Nc3ccc(Cl)cc3OC2)cc1 [CA77]
expression levels of NCOR1 ([1]; WT and rd10 mice): did not change the expression levels of NCOR1
mRNA levels of photoreceptor-specific proteins (rhodopsin) ([1]; rd10 mice): Higher mRNA levels of photoreceptor-specific proteins
outer nuclear layer (ONL) thickness ([1]; rd10 mice): significantly thicker outer nuclear layers
retinal GFAP levels ([1]; rd10 mice): strikingly lower levels of GFAP
retinal L2A levels by immunoblot ([1]; rd10 mice): significantly increasing retinal levels of the limiting CMA component
length of the outer segments of photoreceptors ([1]; rd10 mice, vs vehicle): increased length of the outer segments of photoreceptors
ONL/INL ([2]; Fig. S9c, individual animals): 0.8086 and 0.8292 and 0.9847
ONL/INL, mean ([2]; Fig. S9c, mean, veh 0.676): 0.8578
%functional cones ([2]; Fig. S9d, individual animals): 28.972% and 50% and 24.2991% and 28.7037% and 13.3929% and 16.5289% and 21.8182%
%functional cones, mean ([2]; Fig. S9d, mean, veh 10.94): 26.24%
gliosis [2, 5]: significatively improved
retinal ONL/INL ratio [2, 5]: thicker retinal ONL/INL ratio
Fig. 7a, retinal measurement by eccentricity, eccentricity 1 [2, 6]: 0.3526
Fig. 7a, retinal measurement by eccentricity, eccentricity 2 [2, 6]: 0.3984
Fig. 7a, retinal measurement by eccentricity, eccentricity 3 [2, 6]: 0.5851
Fig. 7a, retinal measurement by eccentricity, eccentricity 4 [2, 6]: 0.8477
Fig. 7a, retinal measurement by eccentricity, eccentricity -1 [2, 6]: 0.3423
Fig. 7a, retinal measurement by eccentricity, eccentricity -2 [2, 6]: 0.3489
Fig. 7a, retinal measurement by eccentricity, eccentricity -3 [2, 6]: 0.5902
membrane permeability [3]: highly membrane permeable
cones (cone arrestin-positive) in retinal explants [4]: higher preservation for cones
number of rods (rod arrestin-positive) in retinal explants [4]: significant preservation of the number of rods

Source: publication PMC9304322, “Targeting retinoic acid receptor alpha-corepressor interaction activates chaperone-mediated autophagy and protects against retinal degeneration” (Nature Communications, 2022)
